This passage reports Ki results from patent US20140309210A1, “INDAZOLE COMPOUNDS, COMPOSITIONS AND METHODS OF USE THEREOF” (Genentech, Inc., priority 2011, published 2014).

For the first assay, the target named is T1, purified ITK (Invitrogen PV3875) (Homo sapiens, UniProt Q08881).
T1 construct: purchased Invitrogen PV3875
T1 sequence (Q08881 1-620): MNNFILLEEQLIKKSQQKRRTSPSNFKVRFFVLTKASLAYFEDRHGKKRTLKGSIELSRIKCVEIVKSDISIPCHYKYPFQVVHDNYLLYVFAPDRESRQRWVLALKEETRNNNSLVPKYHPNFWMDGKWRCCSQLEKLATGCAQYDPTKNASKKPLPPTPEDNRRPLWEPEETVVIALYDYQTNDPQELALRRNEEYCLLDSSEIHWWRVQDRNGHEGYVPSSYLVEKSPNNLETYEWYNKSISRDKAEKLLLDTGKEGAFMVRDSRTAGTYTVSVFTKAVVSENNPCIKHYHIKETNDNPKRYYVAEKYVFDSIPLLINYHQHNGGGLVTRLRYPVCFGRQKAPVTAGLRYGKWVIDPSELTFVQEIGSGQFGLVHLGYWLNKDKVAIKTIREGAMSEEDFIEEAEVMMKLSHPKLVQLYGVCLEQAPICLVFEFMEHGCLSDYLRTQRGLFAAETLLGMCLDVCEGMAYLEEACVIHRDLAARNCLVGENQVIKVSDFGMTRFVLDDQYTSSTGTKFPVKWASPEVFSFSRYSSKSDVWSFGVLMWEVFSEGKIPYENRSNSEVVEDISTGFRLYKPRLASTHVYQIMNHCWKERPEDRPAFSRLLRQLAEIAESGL
As to the kind of experiment: ITK peptide phosphorylation assay (Caliper LabChip or LCMS). The note with it: Table 1, Examples 141-279. The assay is classed as biochemical. The procedure: The ability of purified ITK (Invitrogen PV3875) to catalyze peptide phosphorylation is monitored using a Caliper LabChip 3000 microfluidic unit (Caliper assay) or by liquid chromatography-mass spectrometry (LCMS) using a Waters Acquity system (LCMS assay). […] Reactions are quenched by the addition of 2,2′,2″,2′″-(ethane-1,2-diyldinitrilo)tetraacetic acid (50 mM final). Non-phosphorylated substrate and phosphorylated product peptides are separated and quantified using a Caliper LabChip 3000 instrument. […] Reactions are quenched by the addition of trichloroacetic acid (5% v/v final). Non-phosphorylated substrate and phosphorylated product peptides are separated by ultra performance LC and detected by a coupled triple quadrupole MS device applying multiple reaction monitoring (MRM) for quantification. The area of the MRM-extracted mass signal is used to assess the inhibition by test compounds. Equilibrium dissociation constant (Ki) values for ITK inhibitors are calculated from plots of activity vs. inhibitor concentration using Morrison's quadratic equation that accounts for the potential of tight binding, and by also applying the conversion factor that accounts for competitive inhibition and the concentration of ATP used in the assay relative to its apparent Michaelis constant (Km,app).
Turning to `N#Cc1cccc(Cn2cc(NC(=O)c3n[nH]c4cc(-c5cncs5)ccc34)cn2)c1` [Example 202, N-[1-[(3-cyanophenyl)meth-yl]pyrazol-4-yl]-6-thiazol-5-yl-1H-indazole-3-carboxamide], affinity was put at a Ki of 5.77 nM.

As to `CN(C)CCC(c1cccc(C(F)(F)F)c1)n1cc(NC(=O)c2n[nH]c3cc(-c4cn[nH]c4)ccc23)cn1` (centres unmarked) [Example 248, N-[1-[3-(dimethylamino)-1-[3-(trifluorometh-yl)phenyl]propyl]py-razol-4-yl]-6-(1H-pyrazol-4-yl)-1H-indazole-3-carboxamide], the Ki (as a rule, the dissociation constant of the complex between target and ligand, obtained from inhibition or displacement) is 0.128 nM.

Consider `CC[C@H](c1cscn1)n1cc(NC(=O)c2n[nH]c3cc(-c4cn[nH]c4)ccc23)cn1` [Example 174, 6-(1H-pyrazol-4-yl)-N-[1-[(1R)-1-thiazol-4-ylpropyl]pyrazol-4-yl]-1H-indazole-3-carboxamide], for which the Ki was found to be 1.42 nM. Against the preceding compound, the Ki is about 11-fold higher.

`N#Cc1cccc(Cn2cc(NC(=O)c3n[nH]c4cc(-c5cn[nH]c5)c(F)cc34)cn2)c1` [Example 147, N-[1-[(3-cyanophenyl)meth-yl]pyrazol-4-yl]-5-fluoro-6-(1H-pyrazol-4-yl)-1H-indazole-3-carboxamide] had a Ki of 7.79 nM.

On to `CCN(CC)CCn1cc(NC(=O)c2n[nH]c3cc(-c4cn[nH]c4)ccc23)cn1` [Example 171, N-[1-[2-(diethylamino)eth-yl]pyrazol-4-yl]-6-(1H-pyrazol-4-yl)-1H-indazole-3-carboxamide], for which the Ki is 7.99 nM.

`CC(=O)N(C)CCC(c1ccccc1)n1cc(NC(=O)c2n[nH]c3ccccc23)cn1` (centres unmarked) [Example 265, N-[1-[3-[acetyl(meth-yl)amino]-1-phenyl-propyl]pyrazol-4-yl]-1H-indazole-3-carboxamide] had a Ki of 23.8 nM.

On to `CN1CCOc2cc(-c3ccc4c(C(=O)Nc5cnn(Cc6cccnc6)c5)n[nH]c4c3)cnc21` [Example 231, 6-(4-methyl-2,3-dihydropyrido[3,2-b][1,4]oxazin-7-yl)-N-[1-(3-pyridylmethyl)py-razol-4-yl]-1H-indazole-3-carboxamide], for which the Ki worked out at 40.8 nM.

`CN(C)CCC(c1cscn1)n1cc(NC(=O)c2n[nH]c3cc(-c4cn[nH]c4)ccc23)cn1` (centres unmarked) [Example 200, N-[1-[3-(dimethylamino)-1-thiazol-4-yl-propyl]pyrazol-4-yl]-6-(1H-pyrazol-4-yl)-1H-indazole-3-carboxamide] displayed a Ki of 0.727 nM.

On to `CN(CCC(c1ccccc1)n1cc(NC(=O)c2n[nH]c3ccccc23)cn1)CC(F)F` (centres unmarked) [Example 274, N-[1-[3-[2,2-difluoroethyl(meth-yl)amino]-1-phenyl-propyl]pyrazol-4-yl]-1H-indazole-3-carboxamide], for which affinity was put at a Ki of 84.8 nM.

In turn, `CNCCC(c1ccccc1)n1cc(NC(=O)c2n[nH]c3ccccc23)cn1` (centres unmarked) [Example 263, N-[1-[3-(methylamino)-1-phenyl-propyl]pyrazol-4-yl]-1H-indazole-3-carboxamide] showed a Ki of 5.14 nM.

With `COCCN(C)CC(c1cccnc1)n1cc(NC(=O)c2n[nH]c3cc(-c4cncc(OC)c4)ccc23)cn1` (centres unmarked) [Example 228, N-[1-[2-[2-methoxyethyl(meth-yl)amino]-1-(3-pyridyl)ethyl]py-razol-4-yl]-6-(5-methoxy-3-pyridyl)-1H-indazole-3-carboxamide], the Ki came out at 5.54 nM. The Ki values of the last two compounds are within 1.5-fold of each other.

`Cc1cc2c(C(=O)Nc3cnn(Cc4cccc(C#N)c4)c3)n[nH]c2cc1-c1cn[nH]c1` [Example 151, N-[1-[(3-cyanophenyl)meth-yl]pyrazol-4-yl]-5-methyl-6-(1H-pyrazol-4-yl)-1H-indazole-3-carboxamide] yielded a Ki of 16.4 nM.

Turning to `COc1cncc(-c2ccc3c(C(=O)Nc4cnn(C(CN(C)C)c5cccnc5)c4)n[nH]c3c2)c1` (centres unmarked) [Example 233, N-[1-[2-(dimethylamino)-1-(3-pyridyl)ethyl]py-razol-4-yl]-6-(5-methoxy-3-pyridyl)-1H-indazole-3-carboxamide], the affinity, expressed as Ki, was 51 nM.

`N#Cc1cccc(Cn2cc(NC(=O)c3n[nH]c4cc(-n5ccnc5)ccc34)cn2)c1` [Example 142, N-[1-[(3-cyanophenyl)meth-yl]pyrazol-4-yl]-6-imidazol-1-yl-1H-indazole-3-carboxamide] registered a Ki of 32.4 nM.

Turning to `O=C(Nc1cnn(CC2CCCO2)c1)c1n[nH]c2cc(-c3cn[nH]c3)ccc12` (centres unmarked) [Example 239, 6-(1H-pyrazol-4-yl)-N-[1-(tetrahydrofuran-2-ylmethyl)pyrazol-4-yl]-1H-indazole-3-carboxamide], affinity was put at a Ki of 6.58 nM.

Staying with this assay, now noted: Table 2, Examples 1-140, class symbols.
As for `O=C(Nc1cnn(Cc2csc(-c3cccs3)n2)c1)c1n[nH]c2cc(-c3cn[nH]c3)ccc12` [Example 23, 6-(1H-Pyrazol-4-yl)-1H-indazole-3-carboxylic acid [1-(2-thiophen-2-yl-thiazol-4-ylmethyl)-1H-pyrazol-4-yl]-amide], the Ki fell in the range of 1 to 100 nM.

Take `Cc1n[nH]c(C)c1CCn1cc(NC(=O)c2n[nH]c3cc(-c4cn[nH]c4)ccc23)cn1` [Example 13, 6-(1H-Pyrazol-4-yl)-1H-indazole-3-carboxylic acid {1-[2-(3,5-dimethyl-1H-pyrazol-4-yl)-ethyl]-1H-pyrazol-4-yl}-amide]: the Ki is 1 to 100 nM.

On to `CN(C)Cc1ccc(Cn2cc(NC(=O)c3n[nH]c4ccccc34)cn2)cc1` [Example 115, N-(1-(4-((dimethylamino)methyl)benzyl)-1H-pyrazol-4-yl)-1H-indazole-3-carboxamide], for which the Ki is 1 to 100 nM.

Turning to `CC(O)CNCc1cccc(Cn2cc(NC(=O)c3n[nH]c4ccccc34)cn2)c1` (centres unmarked) [Example 93, N-(1-(3-((2-hydroxypropylamino)methyl)benzyl)-1H-pyrazol-4-yl)-1H-indazole-3-carboxamide], the Ki is 1 to 100 nM.

`O=C(Nc1cnn(Cc2cccc(-c3cccnc3)c2)c1)c1n[nH]c2cc(-c3cn[nH]c3)ccc12` [Example 36, 6-(1H-Pyrazol-4-yl)-1H-indazole-3-carboxylic acid [1-(3-pyridin-3-yl-benzyl)-1H-pyrazol-4-yl]-amide] returned an inhibitory constant (Ki) of 0.01 to 1 nM.

`Cc1cccc(Cn2cc(NC(=O)c3n[nH]c4ccccc34)cn2)c1` [Example 55, N-(1-(3-methylbenzyl)-1H-pyrazol-4-yl)-1H-indazole-3-carboxamide] gave a Ki of 1 to 100 nM.

As for `Nc1ccc(-c2ccc3c(C(=O)Nc4cnn(Cc5cscn5)c4)n[nH]c3c2)cn1` [Example 45, 6-(6-Amino-pyridin-3-yl)-1H-indazole-3-carboxylic acid (1-thiazol-4-ylmethyl-1H-pyrazol-4-yl)-amide], the Ki was 1 to 100 nM.

For the compound `CC[C@@H](c1ccccc1)n1cc(NC(=O)c2n[nH]c3cc(-c4ccc(N)nc4)ccc23)cn1` [Example 136, (S)-6-(6-aminopyridin-3-yl)-N-(1-(1-phenylpropyl)-1H-pyrazol-4-yl)-1H-indazole-3-carboxamide], the Ki fell in the range of 1 to 100 nM.

The compound `COc1cccc(Cn2cc(NC(=O)c3n[nH]c4ccccc34)cn2)c1` [Example 67, N-(1-(3-methoxybenzyl)-1H-pyrazol-4-yl)-1H-indazole-3-carboxamide] gave a Ki of 1 to 100 nM.

As to `N#Cc1cncc(-c2ccc3c(C(=O)Nc4cnn(Cc5ccccc5)c4)n[nH]c3c2)c1` [Example 84, N-(1-benzyl-1H-pyrazol-4-yl)-6-(5-cyanopyridin-3-yl)-1H-indazole-3-carboxamide], the Ki was in the range of 1 to 100 nM.

Consider `CN(CCC#N)Cc1cccc(Cn2cc(NC(=O)c3n[nH]c4ccccc34)cn2)c1` [Example 100, N-(1-(3-(((2-cyanoethyl)(methyl)amino)methyl)benzyl)-1H-pyrazol-4-yl)-1H-indazole-3-carboxamide], for which the Ki fell in the range of 1 to 100 nM.

For `O=C(Nc1cnn(Cc2ccc(CN3CCC(O)C3)cc2)c1)c1n[nH]c2ccccc12` (centres unmarked) [Example 114, N-(1-(4-((3-hydroxypyrrolidin-1-yl)methyl)benzyl)-1H-pyrazol-4-yl)-1H-indazole-3-carboxamide], the Ki lay in the range of 1 to 100 nM.

`O=C(Nc1cnn(Cc2cc(CN3CCOCC3)on2)c1)c1n[nH]c2cc(-c3cn[nH]c3)ccc12` [Example 18, 6-(1H-Pyrazol-4-yl)-1H-indazole-3-carboxylic acid [1-(5-morpholin-4-ylmethyl-isoxazol-3-ylmethyl)-1H-pyrazol-4-yl]-amide] showed a Ki of 1 to 100 nM.

In turn, `COc1ccc2[nH]nc(C(=O)Nc3cnn(Cc4cccc(C#N)c4)c3)c2c1` [Example 8, N-(1-(3-cyanobenzyl)-1H-pyrazol-4-yl)-5-methoxy-1H-indazole-3-carboxamide] returned a Ki of 1 to 100 nM.
